In paper PMC9491098, “Discovery of novel drug-like antitubercular hits targeting the MEP pathway enzyme DXPS by strategic application of ligand-based virtual screening” (Chemical Science, 2022):
Where two headings read alike, the source gives them in different places.

Tests used:
MtDXPS [1] = target: T1, MtDXPS (Mycobacterium tuberculosis, UniProt P9WNS3); assay: biochemical
MtDXPS [2] = target: T1, MtDXPS; assay: biochemical; conditions: MtDXPS, read-out: K i*
DrDXPS (WT) = DrDXPS (WT) (Deinococcus radiodurans, UniProt Q9RUB5); conditions: pseudo-inhibitors; cited from earlier work
DrDXPS (WT), sequence (Q9RUB5 whole entry, looked up): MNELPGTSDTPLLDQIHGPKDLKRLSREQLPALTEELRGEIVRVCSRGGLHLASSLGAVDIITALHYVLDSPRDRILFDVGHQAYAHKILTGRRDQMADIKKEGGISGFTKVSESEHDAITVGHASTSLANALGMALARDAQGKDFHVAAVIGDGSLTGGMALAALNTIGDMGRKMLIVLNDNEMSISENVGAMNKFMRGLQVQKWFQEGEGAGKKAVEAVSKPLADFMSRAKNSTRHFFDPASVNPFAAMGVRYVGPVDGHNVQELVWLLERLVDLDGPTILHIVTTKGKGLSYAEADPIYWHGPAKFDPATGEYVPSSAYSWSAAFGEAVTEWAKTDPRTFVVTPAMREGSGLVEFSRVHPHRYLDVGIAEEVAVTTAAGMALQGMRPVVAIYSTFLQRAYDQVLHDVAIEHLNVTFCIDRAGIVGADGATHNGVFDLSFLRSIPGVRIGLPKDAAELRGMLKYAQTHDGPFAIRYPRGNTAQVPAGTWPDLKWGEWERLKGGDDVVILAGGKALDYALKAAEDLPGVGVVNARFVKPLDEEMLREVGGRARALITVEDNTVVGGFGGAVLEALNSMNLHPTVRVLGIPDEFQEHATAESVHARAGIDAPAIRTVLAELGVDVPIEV

[3] = Table S1, first round of LBVS, MtDXPS, read-out: IC50
[4] = Table S2, second round of LBVS, MtDXPS, read-out: IC50
[5] = Table 1C, aminothiazole derivatives
[6] = Table S3, third round of LBVS, MtDXPS, read-out: IC50

T1 sequence (P9WNS3 whole entry, looked up): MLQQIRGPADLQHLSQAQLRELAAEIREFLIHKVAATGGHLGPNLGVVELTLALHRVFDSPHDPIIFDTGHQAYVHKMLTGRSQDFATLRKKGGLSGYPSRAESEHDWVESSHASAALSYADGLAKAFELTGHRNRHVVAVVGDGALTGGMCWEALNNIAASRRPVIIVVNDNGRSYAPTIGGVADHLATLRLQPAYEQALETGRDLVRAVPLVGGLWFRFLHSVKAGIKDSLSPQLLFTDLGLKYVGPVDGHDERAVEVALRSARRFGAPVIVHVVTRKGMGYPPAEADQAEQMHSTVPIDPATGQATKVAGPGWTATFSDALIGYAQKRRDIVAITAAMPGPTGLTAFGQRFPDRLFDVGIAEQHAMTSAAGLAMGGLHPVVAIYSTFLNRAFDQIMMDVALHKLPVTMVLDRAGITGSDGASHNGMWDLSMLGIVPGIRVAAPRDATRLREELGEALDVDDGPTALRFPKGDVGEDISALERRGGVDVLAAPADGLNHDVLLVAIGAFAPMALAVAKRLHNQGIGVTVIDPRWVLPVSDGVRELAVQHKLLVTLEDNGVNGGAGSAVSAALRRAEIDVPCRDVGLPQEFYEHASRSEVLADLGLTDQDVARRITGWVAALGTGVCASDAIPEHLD

Row | SMILES | IC50 (MtDXPS [1]; [3]) [µM] | IC50 (MtDXPS [1]; [4]) [µM] | other results
1 | O=C(O)CCc1ccc(-c2ccc(F)cc2)n1Cc1ccco1 [Compound 48] | > 500 |  | 
2 | Nc1ccncc1/C(=N/O)c1ccccc1 [Compound 116] |  | > 2000 | 
3 | COc1ccc(OC/C(=N\O)c2ccc(O)cc2O)cc1 [Compound 111] |  | > 300 | 
4 | CSc1ccc(C2N=C(N)Nc3nc4ccccc4n32)cc1 (stereo not drawn) [Compound 37] | > 60 |  | 
5 | COCC(=O)N(C)Cc1cn(C)nc1C [Compound 66] | > 1000 |  | 
6 | O=C1/C(=N\O)c2c(Cl)cccc2N1Cc1ccccc1 [Compound 113] |  | > 30 | 
7 | CCNC(=S)Nc1ccc(Cc2ccncc2)cc1 [Compound 52] | > 240 |  | 
8 | CCC1CCC2(CC1)N=C(O)N(CC(=O)c1ccc3c(c1)CCC3)C2=O (stereo not drawn) [Compound 71] | > 60 |  | 
9 | Cc1nc(C)c(-c2csc(Nc3ccc(Cl)cn3)n2)s1 [Compound 31] |  |  | Ki (MtDXPS [2]; [5]): > 10 µM; IC50 (MtDXPS [1]; [6]): > 500 µM
10 | CNc1ncc2c(n1)CN(CCc1ccccc1F)C2=O [Compound 106] |  | > 340 | 
11 | O=C(Nc1ccc(O)cc1C(=O)O)c1ccco1 [Compound 81] | > 60 |  | 
12 | O/N=C/c1cccn1-c1ccc(Br)cc1 [Compound 121] |  | > 200 | 
13 | CCc1ccc(C2N=C(N)Nc3nc4ccccc4n32)cc1 (stereo not drawn) [Compound 124] |  | > 30 | 
14 | O=C1NC(=O)C(c2ccccc2)N1 (stereo not drawn) [Compound 56] | > 1000 |  | 
15 | O/N=C(/c1ccccc1)c1ccccn1 [Compound 117] |  | > 500 | 
16 | Cc1nc(N)sc1-c1csc(Nc2ccc(Cl)cn2)n1 [Compound 30] |  |  | Ki (MtDXPS [2]; [5]): 0.3 ± 0.1 µM
17 | OCc1cn(Cc2ccc(Cl)cc2)c2ccccc12 [Compound 16] |  |  | Ki (MtDXPS [2]; Table 1A, indole derivatives): 5.5 ± 0.6 µM
18 | Cc1sc(N)c(C(=O)c2ccccc2)c1C [Compound 38] | > 120 |  | 
19 | NC1=NC(c2ccccc2F)n2c(nc3ccccc32)N1 (stereo not drawn) [Compound 123] |  | > 120 | 
20 | Cc1nn(CCc2nnc(S)n2Cc2ccccc2)c(C)c1Br [Compound 42] | > 30 |  | 
21 | CCCCC(NS(=O)(=O)c1cc2c3c(c1)c(C)cc(=O)n3CC2)C(=O)O (stereo not drawn) [Compound 90] | > 60 |  | 
22 | Cc1cccc(C(=O)N2CCC(C(N)=O)CC2)c1 [Compound 44] |  |  | IC50 (MtDXPS [1]; IC50 (μM)): > 1000 µM
23 | CCn1nccc1CN(C)C(=O)C1CCC1 [Compound 67] | > 1000 |  | 
24 | Nc1ncc2c(n1)CN(Cc1ccccc1C(F)(F)F)C2=O [Compound 107] |  | > 380 | 
25 | Cc1cc(C(=O)O)c(-c2ccccc2)o1 [Compound 55] | > 1000 |  | 

Row | SMILES | IC50 (MtDXPS [1]; [3]) [µM] | IC50 (MtDXPS [1]; [4]) [µM] | other results
26 | Cc1ccccc1-n1c(S)nnc1-c1csc2c1CCCC2 [Compound 41] | > 8 |  | 
27 | CN(C)c1ccc(C2NC(N)=Nc3nc4ccccc4n32)cc1 (stereo not drawn) [Compound 125] |  | > 200 | 
28 | ON=C(c1ccccc1)c1ccccc1 [Compound 115] |  | > 500 | 
29 | Nn1c(S)nnc1Cn1cnc2ccccc21 [Compound 51] | > 1000 |  | 
30 | CC(C)(C)C(O)/C(=N/O)n1cncn1 (stereo not drawn) [Compound 120] |  | > 200 | 
31 | Cc1c(Cl)cccc1Nc1nc(-c2cccnc2)cs1 [Compound 135] |  |  | IC50 (MtDXPS [1]; [6]): > 200 µM
32 | Cc1n[nH]c(O)c1C1OC(=O)c2ccccc21 (stereo not drawn) [Compound 39] | > 1000 |  | 
33 | Cc1nc(N)sc1-c1csc(Nc2cccc(C(F)(F)F)c2)n1 [Compound 28] |  |  | Ki (MtDXPS [2]; [5]): 0.4 ± 0.06 µM
34 | O=C(O)c1cc(O)ccc1C=C(Cl)Cl [Compound 79] | > 1000 |  | 
35 | CC(C)c1ccc(CN(C(=O)COc2ccccc2)c2ccccn2)cc1 [Compound 47] | > 30 |  | 
36 | CCc1cc(C(N)=O)c(NC(=O)c2cccnc2)s1 [Compound 87] | > 60 |  | 
37 | COc1cc(/C=C2\C(=O)Nc3ccc(Br)cc32)cc(OC)c1O [Compound 88] | > 120 |  | 
38 | Cc1nc(C)c(-c2csc(Nc3cccc(Cl)c3C)n2)s1 [Compound 8] |  |  | IC50 (MtDXPS [1]; IC50 against MtDXPS): 117 ± 25 µM
39 | NC1=NC(c2ccc(O)c(O)c2)n2c(nc3ccccc32)N1 (stereo not drawn) [Compound 126] |  | > 160 | 
40 | O=C1/C(=N\O)c2ccc(Cl)cc2N1Cc1ccccc1 [Compound 112] |  | > 900 | 
41 | CO/N=C(\Cc1ccc(Cl)cc1)c1ccc(O)cc1O [Compound 20] |  |  | Ki (MtDXPS [2]; Table 1B, oxime derivatives): > 10 µM
42 | Nc1ncc2c(n1)CN(Cc1ccc3c(c1)OCO3)C2=O [Compound 108] |  | > 260 | 
43 | Cc1ccc(/C(=N\O)c2ccc(O)cc2O)cc1 [Compound 110] |  | > 1000 | 
44 | OCCc1nc2ccccc2n1Cc1cccc(Cl)c1 [Compound 100] |  | > 236 | 
45 | OCc1cn(Cc2cccc(Cl)c2)c2ccccc12 [Compound 15] |  |  | Ki (MtDXPS [2]; Table 1A, indole derivatives): > 10 µM
46 | OCc1cccnc1-c1nc2ccccc2s1 [Compound 61] | > 60 |  | 
47 | Cc1ccc(C)c2c1/C(=N/O)C(=O)N2Cc1ccccc1 [Compound 114] |  | > 60 | 
48 | OCc1cc(CO)n(CCc2c[nH]cn2)n1 [Compound 2, reference compound] |  |  | inhibition of DrDXPS (DrDXPS (WT)): weak inhibitors; IC50 (MtDXPS [1]): > 2000 µM
49 | Cc1ccc(C2NC(N)=Nc3nc4ccccc4n32)o1 (stereo not drawn) [Compound 49] | > 1000 |  | 
